Assay [1] can be described thus: Phase 1 SAD, simplified nutritional appetite questionnaire. Conditions: 0.1-10 mg. It is filed as in vivo, human. How it is done: (§1) Blood samples for determination of growth hormone (GH), insulin-like growth factor-1 (IGF-1), adrenocorticotropic hormone (ACTH), prolactin, cortisol and aldosterone in serum at pre-dose and 0.5, 1, 2, 3, 4, 6 and 24 hours post-dose were collected by venous puncture. All biomarkers were determined using enzyme linked immunosorbent assays (ELISA). Simplified nutritional appetite questionnaire based on appetite assessments at Day −1 after dinner, and on Day 1 pre-dose, 1, 2, 4, 8, and 24 hours after dosing. Stool diary starting on Day 1 until discharge on Day 4.

The next assay deals with cortisol. Put plainly: Phase 1 SAD pharmacodynamics, serum cortisol (ELISA). It is filed as in vivo, human. How it is done: as §1
For orientation: An ELISA detects its analyte on a solid surface through an enzyme-linked reagent.

The subject of the next assay is prolactin. Put plainly: Phase 1 SAD pharmacodynamics, serum prolactin (ELISA). In kind it is in vivo, human. On the procedure: as §1
For assay [2], the system named is cardiomyocytes isolated from hearts of SHAM mice. The experiment in a line: Cardiomyocyte contractility (fractional shortening, % FS), SHAM cardiomyocytes. In kind it is cell-based, mouse. On the procedure: Cardiomyocytes were isolated freshly from cardiac ventricles separately from SHAM and HF mice following the protocol developed by the Alliance for Cellular Signalling (AfCS Procedure Protocol ID PP00000125). From each of the 5 SHAM and 3 HF hearts a cell suspension was made and divided into 10 aliquots each, for a total of 50 aliquots from SHAM and 30 aliquots from HF hearts. These aliquots were treated with vehicle, AC01/HM01 or D-Lys3-GHPR-6+AC01/HM01 as stated and used for the subsequent physiological and biochemical experiments.
(§2) AC01/HM01 was suspended in phosphate buffer saline solution (PBS: in mM: NaCl 137, KCl 7, Na2HPO4 10, KH2PO4 […]) and diluted to obtain 3 different concentrations: 0.2, 0.5 or 1 μM in Tyrode solution. We used a concentration range within 0.2-1 μM to ensure that the receptor was activated. […] Prior to contractility and Ca^2+ signaling measurements and biochemical assays, cardiomyocyte suspensions from SHAM and HF hearts were randomized to 3 types of treatments: vehicle, AC01/HM01, or D-Lys3-GHPR-6+AC01/HM01. The treatment with different agents occurred for 15 minutes at room temperature. Some cell suspension aliquots were flash frozen in liquid N2 and stored at −80° C. for later biochemistry analyses. All the experiments were conducted blinded regarding the treatment of cardiomyocytes.
Fresh isolated cardiomyocytes were aliquoted in 1.5 mL tubes and incubated with a cell permeable form of the fluorescent Ca^2+ indicator Fluo-3 AM for approximately 20 minutes followed by washing for >5 min. The cells were plated on laminin coated glass bottom dishes (35 mm, Mattek, Ashland, MA, USA), and then mounted in a custom built perfusion/stimulation chamber. Cells were continuously perfused with O2/CO2 (95/5%) bubbled Tyrode solution with the following composition (in mM): NaCl 121, KCl 5.0, CaCl2 1.8, MgCl2 0.5, NaH2PO4 0.4, NaHCO3 24, EDTA 0.1, glucose 5.5, which represents the vehicle solution.
15 aliquots of cardiomyocyte suspension from SHAM and 9 aliquots from HF were randomized to different treatments: vehicle, AC01/HM01 (0.2, 0.5 or 1 μM) or pretreatment with D-Lys3-GHPR-6 (3 μM) followed by AC01/HM01 (1 μM). The cardiomyocytes were electrically stimulated to contract at 1 Hz with supra-threshold voltage using two platinum electrodes attached to the perfusion/stimulation chamber.
Line scan fluorescence images were acquired using a confocal microscope (Biorad; 40× oil immersion lenses). […] ImageJ software (open source software developed by NIH, Bethesda, USA) was used to quantify changes in fluorescence (Ca^2+ transients) and contractility of single cardiomyocytes.
The contractility of cardiomyocytes was measured as the percent of length shortening (fractional shortening; % FS). […]

The subject of assay [3] is adrenocorticotropic hormone (ACTH). The experiment in a line: Phase 1 SAD pharmacodynamics, serum ACTH (ELISA). It is filed as in vivo, human. Conditions: higher doses; ACTH determined only after 1.0 mg. On the procedure:
as §1

Assay [4] concerns phospho (Ser 22-23) cardiac troponin I (cTnl). Put plainly: Phospho (Ser 22-23) cTnl western blot in cardiomyocytes. In kind it is cell-based, mouse. Conditions: SHAM cardiomyocytes; 1 μM; western blot normalized to total cTnl. How it is done: as §2
Aliquots of frozen cardiomyocyte suspensions were lysed using NP40 buffer (Thermo Fisher FNN0021, Stockholm, Sweden) supplemented with phosphatase inhibitors (Sigma-Aldrich P2850-1ML, P5726-1ML, Stockholm, Sweden). Protein lysates were separated by electrophoresis and transferred onto membranes. Membranes were incubated with primary antibody: rabbit anti phospho (Ser 22-23) cardiac troponin I (cTnl, Cell Signalling, Leiden, The Netherlands #4004S) and rabbit anti-cTnl (Cell Signalling #4002S, Leiden, The Netherlands). Thereafter, infrared-labelled secondary antibodies (IRDye 680 and IRDye 800, 1:5000, Licor) were used. Immunoreactive bands were analyzed using the Odyssey Infrared Imaging System (Li-Cor, Bad Homburg, Germany). Band densities were quantified with Image J (NIH, Bethesda, USA), normalized to total cTnl and final data was expressed as fold increase compared to bands representing protein extracted from vehicle treated cells.
In general terms: Immunoblotting shows a protein as a band on a membrane.

For assay [5], the system named is insulin-like growth factor-1 (IGF-1). The experiment in a line: Phase 1 SAD pharmacodynamics, serum IGF-1 (ELISA). As to conditions: 0.1-10 mg. In kind it is in vivo, human. On the procedure: as §1

Structures are written as SMILES. Entries after “also recorded” stand apart in the source; their conditions may differ.

Take `COc1ccc([C@H](C)NC(=O)N(C)[C@@H]2CCN(C)CC2(C)C)c(Cl)c1Cl.Cl` [AC01/HM01, 1-[(1S)-1-(2,3-dichloro-4-methoxyphenyl)ethyl]-3-methyl-3-[(4R)-1-methyl-3,3-dimethyl-4-piperidyl]-urea]: the “appetite questionnaire, dose groups vs placebo” value in assay [1] is reported as “no relevant or consistent differences”. In addition, in the assay with cortisol (1.0 and 10 mg HM01), the concentrations of cortisol entry was “rapidly increased above baseline values”. The “cortisol increase, comparison of doses” value in the assay on cortisol (1.0 vs 10 mg) was “similar”. In the assay with prolactin (10 mg vs 1.0 mg), the “prolactin increase, comparison of doses” value was “higher after 10 mg compared to 1.0 mg”. Also, the concentrations of prolactin entry in the assay with prolactin (1.0 and 10 mg HM01) is reported as “rapidly increased above baseline values”. For the same molecule, the “contractility, fractional shortening (FS %) vs vehicle” value in assay [2] (0.5 μM) is “considerable and statistically significant response”; in assay [2] (1 μM) it was “considerable and statistically significant response; also recorded: significant increase of contractility; also recorded: greatest contractile effect compared to vehicle; also recorded: positively responded”. The “contractility, length fractional shortening (FS %), concentration dependence” value in assay [2] (0.2, 0.5 and 1 μM vs vehicle, 1 Hz stimulation) was “increased in a dose-dependent manner; also recorded: dose-dependent increase”. The “concentrations of ACTH” value in assay [3] is on record as “rapidly increased above baseline values”. Besides, the “phosphorylation of cTnl (Serine 22-23) vs vehicle” value in assay [4] is given as “decreased phosphorylation levels; also recorded: reduced the levels of phosphorylation”. Besides, in assay [5], the “IGF-1 serum levels, dose groups vs placebo” value is on record as “No relevant differences”.

For the origin of these results see patent publication US12648941B2, “Piperidine urea derivatives for use as inotropic agents” (Helsinn Healthcare SA, priority 2021, dated 2026).
